Test results reported in the supplement of paper PMC7017272.
± gives the standard deviation of the averaged measurements.

Experiments:
Conditions in all cases: treatment time: 3 days
UT-SCC-44 [1] = assay: drug sensitivity score (DSS); higher = more sensitive; extreme values may be limits of the assay
In short: (§1)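 HPV-negative HNSCC cell lines were plated at 500 cells/well in 384-well plates, either on plastic, on wells coated with Matrigel or Myogel (500 µg/mL), or embedded in Matrigel or Myogel plus rat collagen I. Each compound was tested at five 10-fold concentrations over 3 days. Viability was measured by CellTiter-Glo 2.0 luminescence, and IC50, maximal inhibition and drug sensitivity score came from percent-inhibition dose–response curves fitted in the FIMM pipeline after normalisation to vehicle (0.1% DMSO) and cell-killing control wells.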

UT-SCC-14 = assay: as above
In short: as §1

UT-SCC-24B = assay: as above
In short: as §1

UT-SCC-73 [2] = assay: as above
In short: as §1

UT-SCC-106A [3] = assay: as above
In short: as §1

UT-SCC-28 = assay: as above
In short: as §1

UT-SCC-81 = assay: as above
In short: as §1

UT-SCC-42B [4] = assay: as above
In short: as §1

UT-SCC-42A = assay: as above
In short: as §1

UT-SCC-8 = assay: as above
In short: as §1

UT-SCC-40 [5] = assay: as above
In short: as §1

UT-SCC-24A [6] = assay: maximal % inhibition of viability relative to DMSO; higher = stronger effect
Description: (§2)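 HNSCC cell lines (500 cells/well, 384-well) were cultured on plastic, on top of (2D) or embedded (3D) in Matrigel or human leiomyoma matrix Myogel (500 ug/mL; Myogel 3D mixed with rat collagen I). Cells were treated for 3 days with 5 ten-fold concentrations of each drug, and viability was read by CellTiter-Glo. Viability was normalised to DMSO (0% inhibition) and 100 uM benzethonium chloride (100% inhibition) controls and fitted with the FIMM DSRT pipeline to give IC50 (nM), maximal % inhibition and the drug sensitivity score (DSS). Suffixes _1/_2/_3 on drug names are replicates.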

UT-SCC-24A [7] = assay: relative IC50 (midpoint of the fitted curve; maximal inhibition may be below 50%); higher = less potent
Description: as §2

UT-SCC-24A [8] = assay: drug sensitivity score (DSS); higher = more sensitive
Description: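 HNSCC cell lines (500 cells/well, 384-well) were cultured on plastic, on top of (2D) or embedded (3D) in Matrigel or human leiomyoma matrix Myogel (500 ug/mL; Myogel 3D mixed with rat collagen I). Cells were treated for 3 days with 5 ten-fold concentrations of each drug, and viability was read by CellTiter-Glo. Suffixes _1/_2/_3 on drug names are replicates.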

UT-SCC-44 [9] = assay: relative IC50 (midpoint of the fitted curve; maximal inhibition may be below 50%); higher = less potent
In short: as §1

UT-SCC-73 [10] = assay: as above
In short: as §1

UT-SCC-106A [11] = assay: as above
In short: as §1

UT-SCC-42B [12] = assay: as above
In short: as §1

UT-SCC-40 [13] = assay: as above
In short: as §1

[14] = culture condition: embedded in Matrigel
[15] = culture condition: embedded in Myogel + collagen I
[16] = culture condition: on top of Matrigel
[17] = culture condition: on top of Myogel
[18] = culture condition: plastic 2D (no matrix)

## Cn1c(=O)c(F)c(Nc2ccc(I)cc2F)c2c(=O)n(C[C@@H](O)CO)cnc21 [TAK-733]
UT-SCC-44 [1]; [14]
  drug sensitivity score: 21.6 ± 1.5 DSS
UT-SCC-44 [1]; [15]
  drug sensitivity score: 3.67 ± 1.4 DSS
UT-SCC-44 [1]; [16]
  drug sensitivity score: 14.8 ± 1.2 DSS
UT-SCC-44 [1]; [17]
  drug sensitivity score: 5.27 ± 2.8 DSS
UT-SCC-44 [1]; [18]
  drug sensitivity score: 12.9 ± 0.4 DSS
UT-SCC-14; [14]
  drug sensitivity score: 11.2 ± 3.2 DSS
UT-SCC-14; [15]
  drug sensitivity score: 7.5 ± 1.5 DSS
UT-SCC-14; [16]
  drug sensitivity score: 7.13 ± 0.64 DSS
UT-SCC-14; [17]
  drug sensitivity score: 5 ± 0.98 DSS
UT-SCC-14; [18]
  drug sensitivity score: 2.67 ± 3 DSS
UT-SCC-24B; [14]
  drug sensitivity score: 9.43 ± 5.1 DSS
UT-SCC-24B; [15]
  drug sensitivity score: 8.77 ± 1.4 DSS
UT-SCC-24B; [16]
  drug sensitivity score: 10 ± 1.8 DSS
UT-SCC-24B; [17]
  drug sensitivity score: 5.97 ± 2.3 DSS
UT-SCC-24B; [18]
  drug sensitivity score: 13 ± 6 DSS
UT-SCC-73 [2]; [14]
  drug sensitivity score: 24.7 ± 0.5 DSS
UT-SCC-73 [2]; [15]
  drug sensitivity score: 13.8 ± 6 DSS
UT-SCC-73 [2]; [16]
  drug sensitivity score: 21.4 ± 1.6 DSS
UT-SCC-73 [2]; [17]
  drug sensitivity score: 12.9 ± 0.38 DSS
UT-SCC-73 [2]; [18]
  drug sensitivity score: 17.5 ± 1.3 DSS
UT-SCC-106A [3]; [14]
  drug sensitivity score: 16.8 ± 1.1 DSS
UT-SCC-106A [3]; [15]
  drug sensitivity score: 1.2 ± 0.56 DSS
UT-SCC-106A [3]; [16]
  drug sensitivity score: 18.7 ± 0.38 DSS
UT-SCC-106A [3]; [17]
  drug sensitivity score: 1.07 ± 1.1 DSS
UT-SCC-106A [3]; [18]
  drug sensitivity score: 19 ± 1.2 DSS
UT-SCC-28; [14]
  drug sensitivity score: 9.3 ± 2.7 DSS
UT-SCC-28; [15]
  drug sensitivity score: 0.8 ± 1.4 DSS
UT-SCC-28; [16]
  drug sensitivity score: 10.8 ± 2.5 DSS
UT-SCC-28; [18]
  drug sensitivity score: 5 ± 1.4 DSS
UT-SCC-81; [14]
  drug sensitivity score: 28.8 ± 3.6 DSS
UT-SCC-81; [15]
  drug sensitivity score: 3.93 ± 2.7 DSS
UT-SCC-81; [16]
  drug sensitivity score: 19.6 ± 1.2 DSS
UT-SCC-81; [17]
  drug sensitivity score: 2.63 ± 2.3 DSS
UT-SCC-81; [18]
  drug sensitivity score: 2.9 ± 0.17 DSS
UT-SCC-42B [4]; [14]
  drug sensitivity score: 24.1 ± 2.8 DSS
UT-SCC-42B [4]; [16]
  drug sensitivity score: 12.4 ± 1.9 DSS
UT-SCC-42B [4]; [17]
  drug sensitivity score: 2.6 ± 0.1 DSS
UT-SCC-42B [4]; [18]
  drug sensitivity score: 6.27 ± 1.4 DSS
UT-SCC-42A; [14]
  drug sensitivity score: 16.7 ± 2 DSS
UT-SCC-42A; [15]
  drug sensitivity score: 8.73 ± 7.5 DSS
UT-SCC-42A; [16]
  drug sensitivity score: 16 ± 1.3 DSS
UT-SCC-42A; [17]
  drug sensitivity score: 9.63 ± 2.4 DSS
UT-SCC-42A; [18]
  drug sensitivity score: 11.4 ± 1.6 DSS
UT-SCC-8; [14]
  drug sensitivity score: 13.6 ± 2.6 DSS
UT-SCC-8; [15]
  drug sensitivity score: 2.3 ± 2.6 DSS
UT-SCC-8; [16]
  drug sensitivity score: 8.03 ± 4.5 DSS
UT-SCC-8; [17]
  drug sensitivity score: 7.53 ± 4.9 DSS
UT-SCC-8; [18]
  drug sensitivity score: 7.07 ± 2.1 DSS
UT-SCC-40 [5]; [14]
  drug sensitivity score: 24 ± 0.56 DSS
UT-SCC-40 [5]; [15]
  drug sensitivity score: 16.2 ± 2.5 DSS
UT-SCC-40 [5]; [16]
  drug sensitivity score: 20.2 ± 1.5 DSS
UT-SCC-40 [5]; [17]
  drug sensitivity score: 10 ± 0.56 DSS
UT-SCC-40 [5]; [18]
  drug sensitivity score: 11.6 ± 1.3 DSS
UT-SCC-24A [6]; [14]
  maximal % inhibition of viability: 81.5 ± 1.9%
UT-SCC-24A [6]; [15]
  maximal % inhibition of viability: 53.9 ± 2.1%
UT-SCC-24A [6]; [16]
  maximal % inhibition of viability: 77.7 ± 1.1%
UT-SCC-24A [6]; [17]
  maximal % inhibition of viability: 45.9 ± 4%
UT-SCC-24A [6]; [18]
  maximal % inhibition of viability: 70.6 ± 1.3%
UT-SCC-24A [7]; [16]
  relative IC50: 1.23 nM
UT-SCC-24A [7]; [18]
  relative IC50: 1.21 nM
UT-SCC-24A [8]; [14]
  drug sensitivity score: 32.5 ± 1.7 DSS
UT-SCC-24A [8]; [15]
  drug sensitivity score: 17 ± 1.9 DSS
UT-SCC-24A [8]; [16]
  drug sensitivity score: 27 ± 0.5 DSS
UT-SCC-24A [8]; [17]
  drug sensitivity score: 9.37 ± 1.8 DSS
UT-SCC-24A [8]; [18]
  drug sensitivity score: 24.6 ± 0.76 DSS
UT-SCC-44 [9]; [14]
  relative IC50: 3.37 nM
UT-SCC-44 [9]; [15]
  relative IC50: 108 nM
UT-SCC-44 [9]; [18]
  relative IC50: 7.56 nM
UT-SCC-73 [10]; [14]
  relative IC50: 2.4 nM
UT-SCC-73 [10]; [15]
  relative IC50: 3.82 nM
UT-SCC-73 [10]; [16]
  relative IC50: 3.23 nM
UT-SCC-73 [10]; [17]
  relative IC50: 9.54 nM
UT-SCC-73 [10]; [18]
  relative IC50: 5.35 nM
UT-SCC-106A [11]; [14]
  relative IC50: 2.16 nM
UT-SCC-106A [11]; [16]
  relative IC50: 2.3 nM
UT-SCC-106A [11]; [18]
  relative IC50: 2.3 nM
UT-SCC-42B [12]; [14]
  relative IC50: 1.54 nM
UT-SCC-42B [12]; [17]
  relative IC50: 80.8 nM
UT-SCC-40 [13]; [14]
  relative IC50: 2.68 nM
UT-SCC-40 [13]; [15]
  relative IC50: 6.76 nM
UT-SCC-40 [13]; [16]
  relative IC50: 4.29 nM
UT-SCC-40 [13]; [17]
  relative IC50: 13.8 nM
UT-SCC-40 [13]; [18]
  relative IC50: 10.6 nM
